Laboratory results taken from ChEMBL document CHEMBL5244219, “Recent developments of quinolone-based derivatives and their activities against Escherichia coli” (Eur J Med Chem, 2018).
In brackets after ≈: the same amount, converted by molar mass.

tested on: Escherichia coli; experiment: Antibacterial activity against Escherichia coli NIHJ JC-2 assessed as bacterial growth inhibition; type: functional

Structure (SMILES) | MIC [µg/mL]
NC1CCN(c2cc3c(c(=O)c(C(=O)O)cn3C3CC3)c3[nH]cnc23)C1 (centres undefined) | 0.025 (≈ 0.0707 µM)
O=C(O)c1cn(C2CC2)c2c(F)c(N3CCNCC3)c3nc[nH]c3c2c1=O | 0.025 (≈ 0.0673 µM)
CN1CCN(c2c(F)c3c(c(=O)c(C(=O)O)cn3C3CC3)c3[nH]nnc23)CC1 | 0.025 (≈ 0.0647 µM)
CN1CCN(c2cc3c(c(=O)c(C(=O)O)cn3C3CC3)c3[nH]nnc23)CC1 | 0.025 (≈ 0.0679 µM)
NC1CCN(c2c(F)c3c(c(=O)c(C(=O)O)cn3C3CC3)c3[nH]cnc23)C1 (centres undefined) | 0.025 (≈ 0.0673 µM)
NCC1CCN(c2cc3c(c(=O)c(C(=O)O)cn3C3CC3)c3[nH]cnc23)C1 (centres undefined) | 0.025 (≈ 0.068 µM)
O=C(O)c1cn(C2CC2)c2c(Cl)c(N3CCNCC3)c3nc[nH]c3c2c1=O | 0.025 (≈ 0.0645 µM)
CN1CCN(c2c(Cl)c3c(c(=O)c(C(=O)O)cn3C3CC3)c3[nH]nnc23)CC1 | 0.025 (≈ 0.0621 µM)
O=C(O)c1cn(C2CC2)c2c(F)c(N3CCNCC3)c3nn[nH]c3c2c1=O | 0.025 (≈ 0.0671 µM)
NCC1CCN(c2c(F)c3c(c(=O)c(C(=O)O)cn3C3CC3)c3[nH]nnc23)C1 (centres undefined) | 0.025 (≈ 0.0647 µM)
NC1CCN(c2c(Cl)c3c(c(=O)c(C(=O)O)cn3C3CC3)c3[nH]nnc23)C1 (centres undefined) | 0.025 (≈ 0.0643 µM)
NC1CCN(c2c(F)c3c(c(=O)c(C(=O)O)cn3C3CC3)c3[nH]nnc23)C1 (centres undefined) | 0.025 (≈ 0.0671 µM)
NC1CCN(c2c(Cl)c3c(c(=O)c(C(=O)O)cn3C3CC3)c3[nH]cnc23)C1 (centres undefined) | 0.025 (≈ 0.0645 µM)
CN1CCN(c2c(F)c3c(c(=O)c(C(=O)O)cn3C3CC3)c3[nH]cnc23)CC1 | 0.025 (≈ 0.0649 µM)
C[C@@H]1CN(c2c(F)c(N)c3c(=O)c(C(=O)O)cn(C4CC4)c3c2F)C[C@H](C)N1 [SPARFLOXACIN] | 0.0125 (≈ 0.0319 µM)
NCC1CCN(c2c(F)c3c(c(=O)c(C(=O)O)cn3C3CC3)c3[nH]cnc23)C1 (centres undefined) | 0.025 (≈ 0.0649 µM)
CN1CCN(c2c(Cl)c3c(c(=O)c(C(=O)O)cn3C3CC3)c3[nH]cnc23)CC1 | 0.025 (≈ 0.0622 µM)
O=C(O)c1cn(C2CC2)c2cc(N3CCNCC3)c3nc[nH]c3c2c1=O | 0.025 (≈ 0.0707 µM)
CN1CCN(c2cc3c(c(=O)c(C(=O)O)cn3C3CC3)c3[nH]cnc23)CC1 | 0.025 (≈ 0.068 µM)

tested on: Escherichia coli; experiment: Antibacterial activity against Escherichia coli assessed as bacterial growth inhibition incubated for 24 hrs by agar streak dilution method; type: functional

Structure (SMILES) | MIC [µg/mL]
N#Cc1ccc2nc(N3C(=O)CSC3N3CCN(c4cc5c(cc4F)c(=O)c(C(=O)O)cn5C4CC4)CC3)sc2c1 (centres undefined) | 2 (≈ 3.39 µM)
COc1ccc2nc(N3C(=O)CSC3N3CCN(c4cc5c(cc4F)c(=O)c(C(=O)O)cn5C4CC4)CC3)sc2c1 (centres undefined) | 2 (≈ 3.36 µM)
CC(=O)Nc1ccc2nc(N3C(=O)CSC3N3CCN(c4cc5c(cc4F)c(=O)c(C(=O)O)cn5C4CC4)CC3)sc2c1 (centres undefined) | 2 (≈ 3.21 µM)
CCn1cc(C(=O)O)c(=O)c2cc(F)c(N3CCN(C4SCC(=O)N4c4nc5ccc(OC)cc5s4)CC3)cc21 (centres undefined) | 2 (≈ 3.43 µM)
O=C(O)c1cn(C2CC2)c2cc(N3CCN(C4SCC(=O)N4c4nc5ccc(F)cc5s4)CC3)c(F)cc2c1=O (centres undefined) | 2 (≈ 3.43 µM)
CCn1cc(C(=O)O)c(=O)c2cc(F)c(N3CCN(C4SCC(=O)N4c4nc5ccc(C#N)cc5s4)CC3)cc21 (centres undefined) | 2 (≈ 3.46 µM)
CCn1cc(C(=O)O)c(=O)c2cc(F)c(N3CCN(C4SCC(=O)N4c4nc5ccc([N+](=O)[O-])cc5s4)CC3)cc21 (centres undefined) | 2 (≈ 3.34 µM)
O=C(O)c1cn(C2CC2)c2cc(N3CCN(C4SCC(=O)N4c4nc5ccc(Br)cc5s4)CC3)c(F)cc2c1=O (centres undefined) | 2 (≈ 3.1 µM)
CCn1cc(C(=O)O)c(=O)c2cc(F)c(N3CCN(C4SCC(=O)N4c4nc5ccc(NC(C)=O)cc5s4)CC3)cc21 (centres undefined) | 2 (≈ 3.27 µM)
CCn1cc(C(=O)O)c(=O)c2cc(F)c(N3CCN(C4SCC(=O)N4c4nc5ccc(Br)cc5s4)CC3)cc21 (centres undefined) | 2 (≈ 3.16 µM)
CCOc1ccc2nc(N3C(=O)CSC3N3CCN(c4cc5c(cc4F)c(=O)c(C(=O)O)cn5CC)CC3)sc2c1 (centres undefined) | 2 (≈ 3.35 µM)
CCn1cc(C(=O)O)c(=O)c2cc(F)c(N3CCN(C4SCC(=O)N4c4nc5ccc(F)cc5s4)CC3)cc21 (centres undefined) | 2 (≈ 3.5 µM)
O=C(O)c1cn(C2CC2)c2cc(N3CCN(C4SCC(=O)N4c4nc5ccc([N+](=O)[O-])cc5s4)CC3)c(F)cc2c1=O (centres undefined) | 2 (≈ 3.28 µM)
CCOc1ccc2nc(N3C(=O)CSC3N3CCN(c4cc5c(cc4F)c(=O)c(C(=O)O)cn5C4CC4)CC3)sc2c1 (centres undefined) | 2 (≈ 3.28 µM)

tested on: Escherichia coli; experiment: Antibacterial activity against Escherichia coli NCDC 134 assessed as bacterial growth inhibition; type: functional

Structure (SMILES) | MIC [µg/mL]
CC(C)NCc1cn(-c2cc3c(cc2F)c(=O)c(C(=O)NO)cn3C2CC2)nn1 | > 64
COc1c(N2CCN(CC(=O)Nc3nc4ccc([N+](=O)[O-])cc4s3)C(C)C2)c(F)cc2c(=O)c(C(=O)O)cn(C3CC3)c12 (centres undefined) | 6 (≈ 9.83 µM)
O=C(N/N=C/c1ccc([N+](=O)[O-])cc1)c1cn(C2CC2)c2cc(N/N=C/c3ccc([N+](=O)[O-])cc3)c(F)cc2c1=O | > 64
O=C(N/N=C/c1ccc2c(c1)OCO2)c1cn(C2CC2)c2cc(N3CCNCC3)c(F)cc2c1=O | > 64
CCn1cc(C(=O)O)c(=O)c2cc(F)c(N3CCN(CC(=O)Nc4nc5ccc(Cl)cc5s4)CC3)cc21 | 6 (≈ 11 µM)
O=C(N/N=C/c1ccccc1O)c1cn(C2CC2)c2cc(N/N=C/c3ccccc3O)c(F)cc2c1=O | > 64
O=C(N/N=C/c1ccc2c(c1)OCO2)c1cn(C2CC2)c2cc(N/N=C/c3ccc4c(c3)OCO4)c(F)cc2c1=O | > 64
O=C(N/N=C/c1ccccc1)c1cn(C2CC2)c2cc(N/N=C/c3ccccc3)c(F)cc2c1=O | > 64
O=C(N/N=C/c1ccc(F)cc1)c1cn(C2CC2)c2cc(N/N=C/c3ccc(F)cc3)c(F)cc2c1=O | > 64
O=C(N/N=C/c1ccc(F)cc1)c1cn(C2CC2)c2cc(N3CCNCC3)c(F)cc2c1=O | > 64
COc1ccc(/C=N/NC(=O)c2cn(C3CC3)c3cc(N4CCNCC4)c(F)cc3c2=O)cc1 | > 64
CCn1cc(C(=O)O)c(=O)c2cc(F)c(N3CCN(CC(=O)Nc4nc5ccc(C)cc5s4)CC3)cc21 | 6 (≈ 11.5 µM)
COc1c(N2CCN(CC(=O)Nc3nc4ccc(C)cc4s3)C(C)C2)c(F)cc2c(=O)c(C(=O)O)cn(C3CC3)c12 (centres undefined) | 6 (≈ 10.4 µM)
O=C(N/N=C/c1ccccc1)c1cn(C2CC2)c2cc(N3CCNCC3)c(F)cc2c1=O | > 64
O=C(NO)c1cn(C2CC2)c2cc(-n3cc(CN4CCNCC4)nn3)c(F)cc2c1=O | > 64
COc1cc(/C=N/NC(=O)c2cn(C3CC3)c3cc(N4CCNCC4)c(F)cc3c2=O)cc(OC)c1OC | > 64
COc1c(N2CCN(CC(=O)Nc3nc4c(Cl)ccc(Cl)c4s3)C(C)C2)c(F)cc2c(=O)c(C(=O)O)cn(C3CC3)c12 (centres undefined) | 6 (≈ 9.46 µM)
CCn1cc(C(=O)O)c(=O)c2cc(F)c(N3CCN(CC(=O)Nc4nc5ccc([N+](=O)[O-])cc5s4)CC3)cc21 | 6 (≈ 10.8 µM)
O=C(CN1CCN(c2cc3c(cc2F)c(=O)c(C(=O)O)cn3C2CC2)CC1)Nc1nc2ccc([N+](=O)[O-])cc2s1 | 6 (≈ 10.6 µM)

Structure (SMILES) | MIC [µg/mL]
O=C(N/N=C/c1ccc([N+](=O)[O-])cc1)c1cn(C2CC2)c2cc(N3CCNCC3)c(F)cc2c1=O | > 64
CN(C)Cc1cn(-c2cc3c(cc2F)c(=O)c(C(=O)NO)cn3C2CC2)nn1 | > 64
COc1ccc(/C=N/NC(=O)c2cn(C3CC3)c3cc(N4CCNCC4)c(F)cc3c2=O)cc1O | > 64
O=C(NO)c1cn(C2CC2)c2cc(-n3cc(CN4CCOCC4)nn3)c(F)cc2c1=O | > 64
CCn1cc(C(=O)O)c(=O)c2cc(F)c(N3CCN(CC(=O)Nc4nc5ccc(F)cc5s4)CC3)cc21 | 6 (≈ 11.4 µM)
CCn1cc(C(=O)O)c(=O)c2cc(F)c(N3CCN(CC(=O)Nc4nc5c(Cl)ccc(Cl)c5s4)CC3)cc21 | 6 (≈ 10.4 µM)
COc1cc(/C=N/NC(=O)c2cn(C3CC3)c3cc(N/N=C/c4cc(OC)c(OC)c(OC)c4)c(F)cc3c2=O)cc(OC)c1OC | > 64
O=C(CN1CCN(c2cc3c(cc2F)c(=O)c(C(=O)O)cn3C2CC2)CC1)Nc1nc2ccc(F)cc2s1 | 6 (≈ 11.1 µM)
O=C(N/N=C/c1ccccc1O)c1cn(C2CC2)c2cc(N3CCNCC3)c(F)cc2c1=O | > 64
O=C(CN1CCN(c2cc3c(cc2F)c(=O)c(C(=O)O)cn3C2CC2)CC1)Nc1nc2c(Cl)ccc(Cl)c2s1 | 6 (≈ 10.2 µM)
O=C(CN1CCN(c2cc3c(cc2F)c(=O)c(C(=O)O)cn3C2CC2)CC1)Nc1nc2ccc(Cl)cc2s1 | 6 (≈ 10.8 µM)
CCN(CC)Cc1cn(-c2cc3c(cc2F)c(=O)c(C(=O)NO)cn3C2CC2)nn1 | > 64
COc1ccc(/C=N/NC(=O)c2cn(C3CC3)c3cc(N/N=C/c4ccc(OC)c(O)c4)c(F)cc3c2=O)cc1O | > 64
COc1c(N2CCN(CC(=O)Nc3nc4ccc(Cl)cc4s3)C(C)C2)c(F)cc2c(=O)c(C(=O)O)cn(C3CC3)c12 (centres undefined) | 6 (≈ 10 µM)
COc1c(N2CCN(CC(=O)Nc3nc4ccc(F)cc4s3)C(C)C2)c(F)cc2c(=O)c(C(=O)O)cn(C3CC3)c12 (centres undefined) | 6 (≈ 10.3 µM)
COc1ccc(/C=N/NC(=O)c2cn(C3CC3)c3cc(N/N=C/c4ccc(OC)cc4)c(F)cc3c2=O)cc1 | > 64
Cc1ccc2nc(NC(=O)CN3CCN(c4cc5c(cc4F)c(=O)c(C(=O)O)cn5C4CC4)CC3)sc2c1 | 6 (≈ 11.2 µM)
CCCN(CCC)Cc1cn(-c2cc3c(cc2F)c(=O)c(C(=O)NO)cn3C2CC2)nn1 | > 64

tested on: Escherichia coli; experiment: Antibacterial activity against Escherichia coli assessed as bacterial growth inhibition incubated for 18 hrs by twofold serial dilution assay; type: functional

Structure (SMILES) | MIC [µg/mL]
O=C(O)c1cn(C2CC2)c2c(F)c(N3CCNCC(F)C3)c(F)cc2c1=O (centres undefined) | 0.03 (≈ 0.0787 µM)
O=C(CN1CCN(c2cc3c(cc2F)c(=O)c(C(=O)O)cn3C2CC2)CC1)c1cccs1 | 0.0075 (≈ 0.0165 µM)
CCn1cc(C(=O)O)c(=O)c2cc(F)c(N3CCN(C/C(=N/O)c4ccoc4)CC3)nc21 | 0.049 (≈ 0.111 µM)
CCn1cc(C(=O)O)c(=O)c2cc(F)c(N3CCN(CC(=O)c4ccoc4)CC3)nc21 | 0.049 (≈ 0.114 µM)
O=C(O)c1cn(C2CC2)c2nc(N3CCN(C/C(=N/OCc4ccccc4)c4ccoc4)CC3)c(F)cc2c1=O | 0.049 (≈ 0.0898 µM)
O=C(O)c1cn(C2CC2)c2cc(N3CCN(C/C(=N/O)c4ccoc4)CC3)c(F)cc2c1=O | 0.049 (≈ 0.108 µM)
CCn1cc(C(=O)O)c(=O)c2cc(F)c(N3CCN(C/C(=N/OCc4ccccc4)c4ccoc4)CC3)cc21 | 0.049 (≈ 0.092 µM)
CCn1cc(C(=O)O)c(=O)c2cc(F)c(N3CCNCC3)nc21 [ENOXACIN] | 0.13 (≈ 0.406 µM)
CO/N=C(/CN1CCN(c2cc3c(cc2F)c(=O)c(C(=O)O)cn3C2CC2)CC1)c1cccs1 | 0.0075 (≈ 0.0155 µM)
CCn1cc(C(=O)O)c(=O)c2cc(F)c(N3CCN(C/C(=N/O)c4ccoc4)CC3)cc21 | 0.049 (≈ 0.111 µM)
O=C(O)c1cn(C2CC2)c2c(F)c(N3CCCNCC3)c(F)cc2c1=O | 0.03 (≈ 0.0826 µM)
O=C(CN1CCN(c2cc3c(cc2F)c(=O)c(C(=O)O)cn3C2CC2)CC1)c1ccoc1 | 0.049 (≈ 0.112 µM)
CCn1cc(C(=O)O)c(=O)c2cc(F)c(N3CCN(C/C(=N/OCc4ccccc4)c4ccoc4)CC3)nc21 | 0.049 (≈ 0.0918 µM)
O=C(O)c1cn(C2CC2)c2c(F)c(N3CCNCC(O)C3)c(F)cc2c1=O (centres undefined) | 0.25 (≈ 0.659 µM)
